# Results from US20230203081A1, “LINCOSAMIDE ANTIBIOTICS AND USES THEREOF” (President and Fellows of Harvard College, priority 2020, published 2023).
# Read-outs that look alike come from different tables or passages of the source.
# What was measured:
# Type in all cases: cell-based
# S. aureus MP-549 msrA = assay: microbe, parasite or virus in culture; settings: Staphylococcus aureus, MP549MSRA
# Summary of the method: (§1)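 Isolates other than streptococci and anaerobes, which had their own procedures, were grown overnight at 35° C on tryptic soy agar with 5% sheep blood. Suspensions were then diluted to a final inoculum of 5×10^5 CFU/mL in broth microdilution wells.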
# S. aureus BAA 977 iErmA = assay: microbe, parasite or virus in culture; settings: Staphylococcus aureus, BAA-977 / MRSA
# Summary of the method: as §1
# S. aureus hVISA = assay: MIC (broth microdilution or agar dilution, CLSI); settings: Staphylococcus aureus
# Summary of the method: as §1
# S. pneumoniae ATCC 49619 = assay: MIC (broth microdilution or agar dilution, CLSI); settings: Streptococcus pneumoniae
# Summary of the method: as §1
# E. faecalis ATCC 29212 = assay: MIC (broth microdilution or agar dilution, CLSI); settings: Enterococcus faecalis
# Summary of the method: as §1
# [1] = test system: E. faecalis MMX 847; cErmB; assay: MIC (broth microdilution or agar dilution, CLSI); settings: Enterococcus faecalis
# Summary of the method: as §1
# [2] = test system: S. aureus ATCC BAA-1707 (MRSA); assay: MIC (broth microdilution or agar dilution, CLSI); settings: Staphylococcus aureus
# Summary of the method: as §1
# S. aureus ATCC 29213 = assay: MIC (broth microdilution or agar dilution, CLSI); settings: Staphylococcus aureus
# Summary of the method: as §1
# [3] = test system: S. pneumoniae MMX 3031 cMefA; assay: MIC (broth microdilution or agar dilution, CLSI); settings: Streptococcus pneumoniae, MMX3031CMEFA
# Summary of the method: as §1
# K. oxytoca Clinical = assay: MIC (broth microdilution or agar dilution, CLSI); settings: Klebsiella oxytoca; K. oxytoca HAV#450; Clinical; read-out: MIC
# Summary of the method: as §1
# S. pneumoniae ATCC 6303 = assay: MIC (broth microdilution or agar dilution, CLSI); settings: Streptococcus pneumoniae, ATCC6303
# Summary of the method: as §1
# [4] = test system: S. pyogenes MMX 946; cErmB; assay: MIC (broth microdilution or agar dilution, CLSI); settings: Streptococcus pyogenes
# Summary of the method: as §1
# S. aureus MMX 3035 cErmA = assay: MIC (broth microdilution or agar dilution, CLSI); settings: Staphylococcus aureus, MMX3035CERMA
# Summary of the method: as §1
# S. pyogenes ATCC 19615 = assay: MIC (broth microdilution or agar dilution, CLSI); settings: Streptococcus pyogenes
# Summary of the method: as §1
# [5] = test system: S. pneumoniae MMX 3028 cErmB; assay: MIC (broth microdilution or agar dilution, CLSI); settings: Streptococcus pneumoniae, MMX3028CERMB
# Summary of the method: as §1
# S. aureus ATCC 700699 = assay: MIC (broth microdilution or agar dilution, CLSI); settings: Staphylococcus aureus
# Summary of the method: as §1
# E. coli ΔTolC = assay: microbe, parasite or virus in culture; settings: Escherichia coli
# Summary of the method: as §1
# E. coli LptD = assay: MIC (broth microdilution or agar dilution, CLSI); settings: Escherichia coli, E. coli HAV#040; LptD; read-out: MIC
# Summary of the method: as §1
# E. coli ATCC 25922 = assay: MIC (broth microdilution or agar dilution, CLSI); settings: Escherichia coli, ATCC25922
# Summary of the method: as §1
# K. pneumoniae ATCC 10031 = assay: MIC (broth microdilution or agar dilution, CLSI); settings: Klebsiella pneumoniae, ATCC10031
# Summary of the method: as §1
# [6] = S. aureus HAV#032, MP-549, MSR(A), read-out: MIC
# [7] = S. aureus HAV#204, hVISA, read-out: MIC
# [8] = ATCC49619, S. pneumoniae HAV#003, ATCC 49619, read-out: MIC
# [9] = ATCC29212, E. faecalis HAV#005, ATCC 29212, read-out: MIC
# [10] = E. faecalis HAV#036, MMX 847, mac-resistant, cErmB, read-out: MIC
# [11] = S. aureus HAV#016, ATCC BAA-1707, MRSA, read-out: MIC
# [12] = ATCC29213, S. aureus HAV#001, ATCC 29213, MP-549, read-out: MIC
# [13] = S. pneumoniae HAV#034, MMX 3031, cMefA, read-out: MIC
# [14] = S. pneumoniae HAV#351, ATCC 6303, read-out: MIC
# [15] = S. pyogenes HAV#035, MMX 946, cErmB, mac-resistant, read-out: MIC
# [16] = S. aureus HAV#031, MMX 3035, cErmA, read-out: MIC
# [17] = ATCC19615, S. pyogenes HAV#004, ATCC 19615, read-out: MIC
# [18] = S. pneumoniae HAV#033, MMX 3028, cErmB, read-out: MIC
# [19] = S. aureus HAV#202, ATCC 700699 (VISA), read-out: MIC
SMILES,MIC (S. aureus MP-549 msrA; [6]) [µg/mL],MIC (S. aureus BAA 977 iErmA) [µg/mL],MIC (S. aureus hVISA; [7]) [µg/mL],MIC (S. pneumoniae ATCC 49619; [8]) [µg/mL],MIC (E. faecalis ATCC 29212; [9]) [µg/mL],"MIC [1, 10] [µg/mL]","MIC [2, 11] [µg/mL]",MIC (S. aureus ATCC 29213; [12]) [µg/mL],"MIC [3, 13] [µg/mL]",MIC (S. pneumoniae ATCC 6303; [14]) [µg/mL],"MIC [4, 15] [µg/mL]",MIC (S. aureus MMX 3035 cErmA; [16]) [µg/mL],MIC (S. pyogenes ATCC 19615; [17]) [µg/mL],"MIC [5, 18] [µg/mL]",MIC (S. aureus ATCC 700699; [19]) [µg/mL],MIC (E. coli LptD) [µg/mL],other results
C[C@H]1c2cccc(O)c2C(=O)C2=C(O)[C@]3(O)C(=O)C(C(N)=O)=C(O)[C@@H](N(C)C)[C@@H]3[C@@H](O)[C@@H]21 [Doxycycline],8,0.25,16,0.125,4,16,0.25,0.25,0.125,0.125,0.125,0.25,0.125,1,16,,MIC (K. oxytoca Clinical): 8 µg/mL
CC(=O)NC[C@H]1CN(c2ccc(N3CCOCC3)c(F)c2)C(=O)O1 [Linezolid],4,2,2,1,2,2,2,2,1,1,1,2,2,0.5,2,32,"MIC (S. aureus BAA 977 iErmA; 24 h): 4 µg/mL; MIC (E. coli ΔTolC; E. coli HAV#038, ΔTolC): 8 µg/mL; MIC (E. coli ATCC 25922; E. coli HAV#006, ATCC 25922): > 128 µg/mL"
CN[C@H](CC(C)C)C(=O)N[C@H]1C(=O)N[C@@H](CC(N)=O)C(=O)N[C@H]2C(=O)N[C@H]3C(=O)N[C@H](C(=O)N[C@H](C(=O)O)c4cc(O)cc(O)c4-c4cc3ccc4O)[C@H](O)c3ccc(c(Cl)c3)Oc3cc2cc(c3O[C@@H]2O[C@H](CO)[C@@H](O)[C@H](O)[C@H]2O[C@H]2C[C@](C)(N)[C@H](O)[C@H](C)O2)Oc2ccc(cc2Cl)[C@H]1O [Vancomycin],,1,,,,,,,,,,,,,,1,MIC (S. aureus MP-549 msrA): 1 µg/mL; MIC (E. coli ΔTolC): > 128 µg/mL; MIC (S. aureus hVISA): 2 µg/mL; MIC (S. pneumoniae ATCC 49619; ATCC49619): 0.5 µg/mL; MIC (E. faecalis ATCC 29212; ATCC29212): 4 µg/mL; MIC [1]: > 64 µg/mL; MIC [2]: 1 µg/mL; MIC (S. aureus ATCC 29213; ATCC29213): 1 µg/mL; MIC [3]: 0.5 µg/mL; MIC (S. pneumoniae ATCC 6303): 0.5 µg/mL; MIC [4]: 0.5 µg/mL; MIC (S. aureus MMX 3035 cErmA): 2 µg/mL; MIC (K. pneumoniae ATCC 10031): > 64 µg/mL; MIC (E. coli ATCC 25922): > 128 µg/mL; MIC (S. pyogenes ATCC 19615; ATCC19615): 0.5 µg/mL; MIC [5]: 0.25 µg/mL; MIC (S. aureus ATCC 700699; ATCC 700699 / VISA): 8 µg/mL
